This is an account of results in ChEMBL document CHEMBL3045022, “The discovery of potential cyclin A/CDK2 inhibitors: a combination of 3D QSAR pharmacophore modeling, virtual screening, and molecular docking studies” (Med Chem Res, 2013).

What is called IC50 is the point on the concentration scale where inhibition reaches its midpoint. Higher therefore signals weaker potency.

In the experiment the target is Cyclin-dependent kinase 2/cyclin A (Homo sapiens, UniProt P24941). The experiment in a line: Inhibition of CDK2/cyclinA (unknown origin). The experiment is classed as protein-complex assay.

`Nc1nc(Nc2ccc(S(N)(=O)=O)cc2)nc(OCC2CCCCC2)c1C=O` had an IC50 of 49 nM.

In the case of `CC[C@@H](C)Oc1nc(Nc2ccc(S(N)(=O)=O)cc2)ncc1C=O`, the concentration for half-maximal inhibition (IC50) turned out to be 13.1 nM. This IC50 lies about 3.7-fold lower than the previous one. Under `Nc1nc(Nc2ccc(S(N)(=O)=O)cc2)nc(OCC2CCCCC2)c1/C=N/O` stands 117 nM.

`CCOc1nc(Nc2ccc(S(N)(=O)=O)cc2)nc(N)c1C=O` showed an IC50 of 49 nM. With `COc1cccc(Nc2ncc(N=O)c(OCC3CCCCC3)n2)c1` the figure was 340 nM. With `O=Nc1cnc(Nc2ccc(S(=O)(=O)Nc3nccs3)cc2)nc1OCC1CCCCC1` the figure was 19 nM; with `CCN(CC)S(=O)(=O)c1ccc(Nc2ncc(N=O)c(OCC3CCCCC3)n2)cc1`, 86 nM. Turning to `O=Nc1cnc(Nc2ccc(S(=O)(=O)NCC3CCCO3)cc2)nc1OCC1CCCCC1` (stereo not drawn), half-maximal inhibition (IC50) required 8.1 nM. Compound `CSc1cccc(Nc2nc(N)c(N=O)c(OCC3CCCCC3)n2)c1` displayed an IC50 of 400 nM.

Turning to `CC(C)Oc1nc(Nc2ccc(S(N)(=O)=O)cc2)nc(N)c1C=O`, the IC50 was determined as 26 nM. Under `N#Cc1c(N)nc(N)nc1OCC1CCCCC1` stands 61000 nM; under `N#CCc1cccc(Nc2nc(N)c(N=O)c(OCC3CCCCC3)n2)c1`, 33 nM.

In the case of `O=Nc1cnc(Nc2cccc(CO)c2)nc1OCC1CCCCC1`, the IC50 was determined as 45 nM. Under `CCOc1nc(Nc2ccc(S(N)(=O)=O)cc2)nc(N)c1N=O` stands 93 nM; under `COc1nc(N)nc(N)c1N=O`, 79000 nM. As for `NC(=O)c1ccc(Nc2ncc(N=O)c(OCC3CCCCC3)n2)cc1`, half-maximal inhibition (IC50) was put at 34 nM. With `CCOc1nc(Nc2ccc(OC)cc2)nc(N)c1C=O` the figure was 1900 nM; with `Nc1nc(Nc2ccc(C(=O)O)cc2)nc(OCC2CCCCC2)c1C=O`, 610 nM; with `O=Nc1cnc(Nc2cccc(Br)c2)nc1OCC1CCCCC1`, 500 nM.

Consider `COc1ccc(Nc2nc(N)c(C=O)c(OC(C)C)n2)cc1`, for which the IC50 was 1800 nM. `Nc1nc(Nc2ccc(C(=O)O)cc2)nc(OCC2CCCCC2)c1N=O`: the IC50 was determined as 110 nM. With `COc1ccc(Nc2nc(N)c(/C=N/O)c(OCC3CCCCC3)n2)cc1` the figure was 8300 nM. Under `CCN(CC)C(=O)c1ccc(Nc2nc(N)c(N=O)c(OCC3CCCCC3)n2)cc1` stands 200 nM; under `Nc1nc(N)c([N+](=O)[O-])c(OCC2CCCCC2)n1`, 8300 nM; under `Brc1cccc(Nc2nccc(OCC3CCCCC3)n2)c1`, 26000 nM. `N#CCc1ccc(Nc2nc(N)cc(OCC3CCCCC3)n2)cc1`: it took 24000 nM to reach half-maximal inhibition (IC50). In turn, `Nc1nc(N)c(-c2ccco2)c(OCC2CCCCC2)n1` came in with a half-maximal inhibitory concentration (IC50) of 56300 nM. `Nc1nc(N)c(-c2cccs2)c(OCC2CCCCC2)n1` had an IC50 of 55000 nM.
